# Like-named read-outs stand apart in the source and are kept apart here.
# Test: Phase one study: effect of food on single 1000 mg dose PK (fasted vs fed)
# Assay type: in vivo, human
# Conditions: for AUC0-24, mean, free DGLA, baseline-corrected plasma / AUC0-24/Dose, mean, free DGLA, baseline-corrected plasma / AUC0-24/Dose, mean, total DGLA, baseline-corrected plasma / AUC0-inf, mean, free DGLA, baseline-corrected plasma / AUC0-inf/Dose, mean, free DGLA, baseline-corrected plasma / CL/F, mean, free DGLA, baseline-corrected plasma / Cmax, mean, free DGLA, baseline-corrected plasma / Cmax/Dose, mean, free DGLA, baseline-corrected plasma / Cmax/Dose, mean, total DGLA, baseline-corrected plasma / λz, mean, free DGLA, baseline-corrected plasma / λz, mean, total DGLA, baseline-corrected plasma / half-life / Tmax: 1000 mg single dose; for mean baseline-corrected AUC0-24, total DGLA vs free DGLA / mean baseline-corrected Cmax, total DGLA vs free DGLA / half-life / Tmax: 1000 mg; for half-life / Tmax: human, plasma, oral; for half-life: read-out: t1/2, median, free DGLA, baseline-corrected plasma (converted); for Tmax: read-out: tmax, median, free DGLA, baseline-corrected plasma
# Description: Subjects were randomly assigned in a 3:1 ratio of DG107G to placebo by block randomization. Single dose part one of the study comprised three cohorts of eight subjects each, with the addition of Cohort four based on evaluation of the safety data of Cohort three by the Safety Monitoring Committee (SMC). A single oral dose of DS107G or matching placebo was administered to fasted subjects in Cohorts one to three (500, 1000, and 2000 mg, respectively) in parallel; subjects in Cohort four were administered a dose of 4000 mg following completion of Cohort three. Subjects in Cohort two received 1000 mg or matching placebo in the fed state at 14 days after the first dose.
# Food effect was evaluated in Cohort two at least 14 days after the first dose at which time a second single dose was administered. Subjects were administered a 1000-mg dose of study drug with 240 mL of water after a 10-hour fasting period and 30 minutes after starting consumption of a meal. Subjects then refrained from food intake for at least 4 hours after dosing. Food consumption was standardized for at least 12 hours after dosing using a standardized high-fat meal (800 to 1000 kcal with 500 to 600 kcal from fat and 250 kcal from carbohydrates). A typical standard test meal consisted of two eggs fried in butter, two strips of bacon, two slices of toast with butter, 120 mL of hash brown potatoes, and 240 mL of whole milk.
# Subjects in Cohort two undergoing evaluation of the food effect on oral 1000 mg DGLA capsules were restricted from food consumption for at least 4 hours after dosing. Food consumption was standardized for at least 12 hours post dose using a standardized high-fat meal.
smiles,measurement,setting,value
"CCCCC/C=C\C/C=C\C/C=C\CCCCCCC(=O)O [DS107G, Dihomo gamma linolenic acid]","AUC0-24, mean, free DGLA, baseline-corrected plasma",fasted,3998.5 ng·h/mL
same,"AUC0-24/Dose, mean, free DGLA, baseline-corrected plasma",fasted,4.00 h/kL
same,"AUC0-24/Dose, mean, total DGLA, baseline-corrected plasma",fasted,215.37 h/kL
same,"AUC0-inf, mean, free DGLA, baseline-corrected plasma",fasted,218955.6 ng·h/mL
same,"AUC0-inf/Dose, mean, free DGLA, baseline-corrected plasma",fasted,218.96 h/kL
same,"CL/F, mean, free DGLA, baseline-corrected plasma",fasted,0.1866 kL/h
same,"Cmax, mean, free DGLA, baseline-corrected plasma",fasted,1602.8 ng/mL
same,"Cmax/Dose, mean, free DGLA, baseline-corrected plasma",fasted,1.603 kL⁻¹
same,"Cmax/Dose, mean, total DGLA, baseline-corrected plasma",fasted,15.750 kL⁻¹
same,"λz, mean, free DGLA, baseline-corrected plasma",fasted,0.0487 h⁻¹
same,"λz, mean, total DGLA, baseline-corrected plasma",fasted,0.0136 h⁻¹
same,"AUC0-24, mean, free DGLA, baseline-corrected plasma",fed,2102.7 ng·h/mL
same,"AUC0-24/Dose, mean, free DGLA, baseline-corrected plasma",fed,2.10 h/kL
same,"AUC0-24/Dose, mean, total DGLA, baseline-corrected plasma",fed,117.39 h/kL
same,"AUC0-inf, mean, free DGLA, baseline-corrected plasma",fed,29150.8 ng·h/mL
same,"AUC0-inf/Dose, mean, free DGLA, baseline-corrected plasma",fed,29.15 h/kL
same,"CL/F, mean, free DGLA, baseline-corrected plasma",fed,0.1658 kL/h
same,"Cmax, mean, free DGLA, baseline-corrected plasma",fed,520.2 ng/mL
same,"Cmax/Dose, mean, free DGLA, baseline-corrected plasma",fed,0.520 kL⁻¹
same,"Cmax/Dose, mean, total DGLA, baseline-corrected plasma",fed,10.317 kL⁻¹
same,"λz, mean, free DGLA, baseline-corrected plasma",fed,0.0403 h⁻¹
same,"λz, mean, total DGLA, baseline-corrected plasma",fed,0.0805 h⁻¹
same,"mean baseline-corrected AUC0-24, total DGLA vs free DGLA",fasted,~54 fold
same,"mean baseline-corrected Cmax, total DGLA vs free DGLA",fasted,~10 fold
same,"mean baseline-corrected AUC0-24, total DGLA vs free DGLA",fed,~56 fold
same,"mean baseline-corrected Cmax, total DGLA vs free DGLA",fed,~20 fold
same,half-life,fasted,28.3 h
same,Tmax,fasted,4 h
same,half-life,fed,141 h
same,Tmax,fed,5 h
same,free DGLA Cmax occurred sooner under fasted than fed conditions (median),single 1000-mg dose,1 h
same,higher rate and extent of total DGLA absorption under fasted conditions (mean Cmax and AUC0-24),single 1000-mg dose,approximately 50%
same,"mean baseline-corrected free DGLA Cmax, fasted vs fed",single 1000-mg dose,about 3 fold
same,"mean free DGLA baseline-corrected AUC0-24, fasted vs fed",single 1000-mg dose,about 2 fold
same,"total DGLA mean baseline-corrected AUC0-24, fasted vs fed",single 1000-mg dose,about 1.8 fold
same,"total DGLA mean baseline-corrected Cmax, fasted vs fed",single 1000-mg dose,about 1.5 fold
same,total DGLA tmax occurred sooner under fasted than fed conditions,single 1000-mg dose,about 50%

# From patent publication US20180333382A1, “PHARMACEUTICAL COMPOSITIONS COMPRISING DGLA AND USE OF SAME” (DS Biopharma Limited, priority 2017, published 2018)
